Here are results for one substance from US11492405B2, “Reducing systemic regulatory t cell levels or activity for treatment of disease and injury of the CNS” (Yeda Research and Development Co. Ltd, priority 2014, dated 2022).

Type in all cases: in vivo, mouse
Assay [1] deals with 5XFAD AD-Tg mice. Description: Radial arm water maze (RAWM) in 5XFAD AD-Tg mice. To be noted: weekly-GA over 4 weeks. On the procedure: The radial-arm water maze (RAWM) was used to test spatial learning and memory, as was previously described in detail (Alamed et al, 2006). Briefly, six stainless steel inserts were placed in the tank, forming six swim arms radiating from an open central area. The escape platform was located at the end of one arm (the goal arm), 1.5 cm below the water surface, in a pool 1.1 m in diameter. The water temperature was kept between 21-22° C. Water was made opaque with milk powder. Within the testing room, only distal visual shape and object cues were available to the mice to aid in location of the submerged platform. The goal arm location remained constant for a given mouse. On day 1, mice were trained for 15 trials (spaced over 3 h), with trials alternating between a visible and hidden platform, and the last 4 trails with hidden platform only. On day 2, mice were trained for 15 trials with the hidden platform. Entry into an incorrect arm, or failure to select an arm within 15 sec, was scored as an error. Spatial learning and memory were measured by counting the number of arm entry errors or the escape latency of the mice on each trial. Training data were analyzed as the mean errors or escape latency, for training blocks of three consecutive trials.

Assay [2] concerns 5XFAD AD-Tg mice. Description: Morris water maze (MWM) in 5XFAD AD-Tg mice. The note with it: weekly-GA vs vehicle (PBS), AD-Tg mice at 6 m. On the procedure: Mice were given three trials per day, for 4 consecutive days, to learn to find a hidden platform located 1.5 cm below the water surface in a pool (1.1 m in diameter). The water temperature was kept between 21-22° C. Water was made opaque with milk powder. Within the testing room, only distal visual shape and object cues were available to the mice to aid in location of the submerged platform. The escape latency, i.e., the time required to find and climb onto the platform, was recorded for up to 60 s. Each mouse was allowed to remain on the platform for 15 s and was then removed from the maze to its home cage. […] The inter-trial interval for each mouse was 10 min. On day 5, the platform was removed, and mice were given a single trial lasting 60 s without available escape. On days 6 and 7, the platform was placed in the quadrant opposite the original training quadrant, and the mouse was retrained for three sessions each day. Data were recorded using the EthoVision V7.1 automated tracking system (Noldus Information Technology). Statistical analysis was performed using analysis of variance (ANOVA) and the Bonferroni post-hoc test. All MWM testing was performed between 10 a.m. and 5 p.m. during the lights-off phase.

Assay [3] has as its system 5XFAD AD-Tg mice. The assay can be described thus: Flow cytometry of CP IFN-γ-expressing immune cells in 5XFAD AD-Tg mice. The note with it: weekly-GA, end of 1st week (two GA injections). As for the experimental part: Mice were transcardially perfused with PBS, and tissues were treated as previously described (Baruch et al, 2013). Brains were dissected and the different brain regions were removed under a dissecting microscope (Stemi DV4; Zeiss) in PBS, and tissues were dissociated using the gentleMACS™ dissociator (Miltenyi Biotec). Choroid plexus tissues were isolated from the lateral, third and fourth ventricles of the brain, incubated at 37° C. for 45 min in PBS (with Ca^2+/Mg^2+) containing 400 U/ml collagenase type IV (Worthington Biochemical Corporation), and then manually homogenized by pipetting. Spleens were mashed with the plunger of a syringe and treated with ACK (ammonium chloride potassium) lysing buffer to remove erythrocytes. In all cases, samples were stained according to the manufacturers' protocols. All samples were filtered through a 70 μm nylon mesh, and blocked with anti-Fc CD16/32 (1:100; BD Biosciences). For intracellular staining of IFN-γ, the cells were incubated with […] (10 ng/ml; Sigma-Aldrich) and ionomycin (250 ng/ml; Sigma-Aldrich) for 6 h, and Brefeldin-A (10 μg/ml; Sigma-Aldrich) was added for the last 4 h. Intracellular labeling of cytokines was done with BD Cytofix/Cytoperm™ Plus fixation/permeabilization kit (cat. no. 555028). […] Cells were analyzed on an LSRII cytometer (BD Biosciences) using FlowJo software. […]
A general note: A flow cytometer gives signals particle by particle.

In the case of Glatiramer acetate [GA], the “time the improved cognitive performance lasted after the treatment” value in the assay with 5XFAD AD-Tg mice [1] (5XFAD AD-Tg mice) is on record as “up to 2 months”. In addition, in the assay with 5XFAD AD-Tg mice [1] (MWM 1 week, RAWM 1 and 2 months after last injection), the “cognitive performance (MWM, RAWM)” value is “improved cognitive performance”. The “spatial learning/memory performance in acquisition, probe and reversal phases of the MWM” value with 5XFAD AD-Tg mice [2] is recorded as “better spatial learning/memory performance”. Besides, the “IFN-γ-producing cells at the CP” value with 5XFAD AD-Tg mice [3] was “increase”.
